Measured values as given in patent US7041677B2, “Use of monochloroflosequinan in the treatment of sexual dysfunction” (R.T. Alamo Ventures I, LLC, priority 2002, dated 2006).

Assays:
[1] = molecular target: T1, PDE6 (Bos taurus, UniProt P11541+P23439); test: PDE6 enzyme inhibition assay; type: biochemical, bovine; conditions: 200 μM, 25° C., 1% DMSO vehicle
T1 construct: from tissue; host or cells: bovine retinal rod outer segments
T1 sequence (P11541 2-856 limits assumed): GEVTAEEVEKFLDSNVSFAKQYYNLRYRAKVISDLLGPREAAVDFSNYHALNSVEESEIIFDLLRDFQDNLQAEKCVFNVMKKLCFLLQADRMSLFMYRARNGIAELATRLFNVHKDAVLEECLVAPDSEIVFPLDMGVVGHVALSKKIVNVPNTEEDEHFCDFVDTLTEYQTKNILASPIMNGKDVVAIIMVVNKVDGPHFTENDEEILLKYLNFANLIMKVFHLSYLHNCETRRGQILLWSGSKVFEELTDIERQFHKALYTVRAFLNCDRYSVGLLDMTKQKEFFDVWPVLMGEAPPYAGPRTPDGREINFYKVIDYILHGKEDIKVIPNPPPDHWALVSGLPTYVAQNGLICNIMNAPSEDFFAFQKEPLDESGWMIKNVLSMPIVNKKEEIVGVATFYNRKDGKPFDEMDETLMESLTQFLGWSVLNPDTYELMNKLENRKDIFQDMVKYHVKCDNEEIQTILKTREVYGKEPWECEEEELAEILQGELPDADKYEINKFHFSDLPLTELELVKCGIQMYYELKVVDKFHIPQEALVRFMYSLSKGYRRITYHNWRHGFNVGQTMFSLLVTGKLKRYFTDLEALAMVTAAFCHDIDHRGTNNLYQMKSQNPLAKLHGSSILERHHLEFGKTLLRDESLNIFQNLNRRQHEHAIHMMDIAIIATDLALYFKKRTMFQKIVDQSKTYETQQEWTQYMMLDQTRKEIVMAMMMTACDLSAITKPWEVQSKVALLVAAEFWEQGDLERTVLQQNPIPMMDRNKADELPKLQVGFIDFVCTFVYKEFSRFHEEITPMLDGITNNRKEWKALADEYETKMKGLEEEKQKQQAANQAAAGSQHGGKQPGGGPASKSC
T1 sequence (P23439 2-850 limits assumed): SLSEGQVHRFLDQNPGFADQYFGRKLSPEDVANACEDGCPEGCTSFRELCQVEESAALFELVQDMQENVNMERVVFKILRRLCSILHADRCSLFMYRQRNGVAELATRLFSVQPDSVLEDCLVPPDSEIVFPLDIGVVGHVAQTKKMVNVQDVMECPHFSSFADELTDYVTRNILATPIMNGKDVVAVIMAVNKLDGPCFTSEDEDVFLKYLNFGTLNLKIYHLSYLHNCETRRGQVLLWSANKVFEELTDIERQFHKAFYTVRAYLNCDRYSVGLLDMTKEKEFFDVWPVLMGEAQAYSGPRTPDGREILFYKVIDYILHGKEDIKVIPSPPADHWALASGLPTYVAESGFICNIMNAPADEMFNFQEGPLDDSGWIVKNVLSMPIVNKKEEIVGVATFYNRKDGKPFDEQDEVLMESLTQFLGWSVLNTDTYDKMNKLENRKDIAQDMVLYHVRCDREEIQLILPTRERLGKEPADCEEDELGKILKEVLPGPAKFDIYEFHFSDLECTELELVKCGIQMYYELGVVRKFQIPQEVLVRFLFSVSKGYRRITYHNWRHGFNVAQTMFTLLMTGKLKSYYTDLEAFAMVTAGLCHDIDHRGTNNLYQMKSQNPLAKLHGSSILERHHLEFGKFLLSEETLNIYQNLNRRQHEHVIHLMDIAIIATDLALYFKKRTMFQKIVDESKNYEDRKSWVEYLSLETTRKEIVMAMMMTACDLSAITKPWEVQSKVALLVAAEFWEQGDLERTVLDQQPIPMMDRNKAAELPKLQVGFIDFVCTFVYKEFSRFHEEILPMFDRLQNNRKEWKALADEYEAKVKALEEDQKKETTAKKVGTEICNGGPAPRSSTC

[2] = Plasma levels following oral administration; type: in vivo

inhibition of PDE6 [1] | time of peak plasma concentrations ([2]; following oral administration) [h] | time of peak metabolite plasma levels ([2]; following oral dosage) | Compound
greater than 50% | 1 to 2 | about seven | Cn1cc([S@+]([O-])CCl)c(=O)c2ccc(F)cc21 (single isomer, unassigned) [(+)-enantiomer of monochloroflosequinan]
greater than 50% |  |  | Cn1cc([S@@+]([O-])CCl)c(=O)c2ccc(F)cc21 (single isomer, unassigned) [(−)-enantiomer of monochloroflosequinan]
